Key:
AMBEL (Ragweed, Common) [1] = assay: Postemergence herbicidal evaluation; format: in vivo, Ambrosia artemisifolia; settings: postemergence
Method in brief: (§1)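 Visual 0-9 injury score (stand, vigor, malformation, size, chlorosis, appearance vs untreated) taken four to five weeks post-spray, averaged across repeat tests. Test plants about two weeks old; foliar spray of acetone/water (1:1) with 0.5% surfactant delivering ~0.0156-0.500 kg active/ha.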

CASOB (Sicklepod) [2] = assay: Postemergence herbicidal evaluation; format: in vivo, Cassia obtusifolia; settings: postemergence
Method in brief: as §1

[3] = test system: CHEAL (Lambsquarters, Common); assay: Postemergence herbicidal evaluation; format: in vivo, Chenopodium album; settings: postemergence
Method in brief: as §1

[4] = test system: IPOHE (Morningglory, Ivyleaf); assay: Postemergence herbicidal evaluation; format: in vivo, Ipomoea hederacea; settings: postemergence
Method in brief: as §1

ECHCG (Barnyardgrass) = assay: Postemergence herbicidal evaluation; format: in vivo, Echinochloa crus-galli; settings: postemergence
Method in brief: as §1

[5] = test system: GLXMAW (Soybean, Williams); assay: Postemergence herbicidal evaluation; format: in vivo, Glycine max, (L.) Merr. cv Williams; settings: postemergence
Method in brief: as §1

[6] = test system: TRZAWR (Wheat, Winter, cv Riband); assay: Postemergence herbicidal evaluation; format: in vivo, Triticum aestivum; settings: postemergence
Method in brief: as §1

ABUTH (Velvetleaf) = assay: Preemergence herbicidal evaluation; format: in vivo, Abutilon theophrasti; settings: preemergence, rated 4-5 weeks after treatment, 0-9 scale
Method in brief: (§2)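 Greenhouse preemergence test: seed-soil mix sown on ~1 inch soil; aqueous acetone spray at equivalent of ~0.0156–0.500 kg/ha; greenhouse-held and watered; scored 0–9 visually at 4–5 weeks.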

AMBEL (Ragweed, Common) [7] = assay: Preemergence herbicidal evaluation; format: in vivo, Ambrosia artemisifolia; settings: preemergence, rated 4-5 weeks after treatment, 0-9 scale
Method in brief: as §2

CASOB (Sicklepod) [8] = assay: Preemergence herbicidal evaluation; format: in vivo, Cassia obtusifolia; settings: preemergence, rated 4-5 weeks after treatment, 0-9 scale
Method in brief: as §2

[9] = test system: CHEAL (Lambsquarters, Common); assay: Preemergence herbicidal evaluation; format: in vivo, Chenopodium album; settings: preemergence, rated 4-5 weeks after treatment, 0-9 scale
Method in brief: as §2

[10] = test system: IPOHE (Morningglory, Ivyleaf); assay: Preemergence herbicidal evaluation; format: in vivo, Ipomoea hederacea; settings: preemergence, rated 4-5 weeks after treatment, 0-9 scale
Method in brief: as §2

[11] = test system: GLXMAW (Soybean, Williams); assay: Preemergence herbicidal evaluation; format: in vivo, Glycine max, (L.) Merr. cv Williams; settings: preemergence, rated 4-5 weeks after treatment, 0-9 scale
Method in brief: as §2

ORYSAT (Rice, Tebonnet) = assay: Preemergence herbicidal evaluation; format: in vivo, Oryza sativa, (L.) Tebonnet; settings: preemergence, rated 4-5 weeks after treatment, 0-9 scale
Method in brief: as §2

MOOVA (Monochoria) = assay: Preemergence weed control under flooded paddy conditions; format: in vivo, Monochoria vaginalis; settings: rated 3-4 weeks after treatment
Method in brief: (§3)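 Seeds or propagules sown in top 0.5 cm of silt loam soil, flooded 1.5 to 3 cm above surface throughout. Compound in 50/50 v/v aqueous/acetone pipetted into flood water at about 0.0313 to 0.500 kg/ha. Visual 0-9 rating versus control after three to four weeks in greenhouse.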

[12] = test system: SAGPY (Arrowhead (Pygmaea)); assay: as above; format: in vivo, Sagittaria pygmaea; settings: rated 3-4 weeks after treatment
Method in brief: as §3

`CC(C)OC(=O)CC1SC(=Nc2cc(-n3c(=O)cc(C(F)(F)F)n(C)c3=O)c(F)cc2Cl)N(C)C1=O` (stereo not drawn) [Compound 89, Isopropyl 2-{{2-chloro-5-[3,6-dihydro-3-methyl-2,6-dioxo-4-(trifluoromethyl)-1(2H)-pyrimidinyl]-4-fluorophenyl}imino}-3-methyl-4-oxo-5-thiazolidineacetate] was tested, and the AMBEL herbicidal rating (AMBEL (Ragweed, Common) [1]; rate 0.0158 kg/ha) was 4.0, the AMBEL herbicidal rating (AMBEL (Ragweed, Common) [1]; rate 0.0313 kg/ha) was 9.0 and the AMBEL herbicidal rating (AMBEL (Ragweed, Common) [1]; rate 0.0625 kg/ha) was 9.0. It also gave an AMBEL herbicidal rating (AMBEL (Ragweed, Common) [1]; rate 0.1250 kg/ha) of 9.0, a CASOB herbicidal rating (CASOB (Sicklepod) [2]; rate 0.0158 kg/ha) of 0.0 and a CASOB herbicidal rating (CASOB (Sicklepod) [2]; rate 0.0313 kg/ha) of 6.0. For the same compound, the CASOB herbicidal rating (CASOB (Sicklepod) [2]; rate 0.0625 kg/ha) was 9.0, the CASOB herbicidal rating (CASOB (Sicklepod) [2]; rate 0.1250 kg/ha) was 9.0 and the CHEAL herbicidal rating ([3]; rate 0.0158 kg/ha) was 4.0. For the same compound, the CHEAL herbicidal rating ([3]; rate 0.0313 kg/ha) was 9.0, the CHEAL herbicidal rating ([3]; rate 0.0625 kg/ha) was 9.0 and the CHEAL herbicidal rating ([3]; rate 0.1250 kg/ha) was 9.0. The IPOHE herbicidal rating ([4]; rate 0.0158 kg/ha) was 9.0, the IPOHE herbicidal rating ([4]; rate 0.0313 kg/ha) was 9.0 and the IPOHE herbicidal rating ([4]; rate 0.0625 kg/ha) was 9.0. It also gave an IPOHE herbicidal rating ([4]; rate 0.1250 kg/ha) of 9.0, an ECHCG herbicidal rating (ECHCG (Barnyardgrass); rate 0.0158 kg/ha) of 2.0 and an ECHCG herbicidal rating (ECHCG (Barnyardgrass); rate 0.0313 kg/ha) of 9.0. It also gave an ECHCG herbicidal rating (ECHCG (Barnyardgrass); rate 0.0625 kg/ha) of 9.0, an ECHCG herbicidal rating (ECHCG (Barnyardgrass); rate 0.1250 kg/ha) of 9.0 and a GLXMAW herbicidal rating ([5]; rate 0.0158 kg/ha) of 7.5. It also gave a GLXMAW herbicidal rating ([5]; rate 0.0313 kg/ha) of 9.0, a GLXMAW herbicidal rating ([5]; rate 0.0625 kg/ha) of 9.0 and a GLXMAW herbicidal rating ([5]; rate 0.1250 kg/ha) of 9.0. The TRZAWR herbicidal rating ([6]; rate 0.0158 kg/ha) was 5.5, the TRZAWR herbicidal rating ([6]; rate 0.0313 kg/ha) was 7.0 and the TRZAWR herbicidal rating ([6]; rate 0.0625 kg/ha) was 7.0. It also gave a TRZAWR herbicidal rating ([6]; rate 0.1250 kg/ha) of 7.0, an ABUTH rating (ABUTH (Velvetleaf); 0.0156 kg/ha) of 1.5 and an ABUTH rating (ABUTH (Velvetleaf); 0.0313 kg/ha) of 6.5. For the same compound, the ABUTH rating (ABUTH (Velvetleaf); 0.0625 kg/ha) was 9.0, the ABUTH rating (ABUTH (Velvetleaf); 0.1250 kg/ha) was 9.0 and the ABUTH rating (ABUTH (Velvetleaf); 0.2500 kg/ha) was 9.0. The ABUTH rating (ABUTH (Velvetleaf); 0.5000 kg/ha) was 9.0, the AMBEL rating (AMBEL (Ragweed, Common) [7]; 0.0156 kg/ha) was 0.0 and the AMBEL rating (AMBEL (Ragweed, Common) [7]; 0.0313 kg/ha) was 0.5. It also gave an AMBEL rating (AMBEL (Ragweed, Common) [7]; 0.0625 kg/ha) of 2.0, an AMBEL rating (AMBEL (Ragweed, Common) [7]; 0.1250 kg/ha) of 6.5 and an AMBEL rating (AMBEL (Ragweed, Common) [7]; 0.2500 kg/ha) of 6.5. The AMBEL rating (AMBEL (Ragweed, Common) [7]; 0.5000 kg/ha) was 9.0, the CASOB rating (CASOB (Sicklepod) [8]; 0.0156 kg/ha) was 0.0 and the CASOB rating (CASOB (Sicklepod) [8]; 0.0313 kg/ha) was 0.0. For the same compound, the CASOB rating (CASOB (Sicklepod) [8]; 0.0625 kg/ha) was 0.0, the CASOB rating (CASOB (Sicklepod) [8]; 0.1250 kg/ha) was 3.0 and the CASOB rating (CASOB (Sicklepod) [8]; 0.2500 kg/ha) was 6.0. For the same compound, the CASOB rating (CASOB (Sicklepod) [8]; 0.5000 kg/ha) was 9.0, the CHEAL rating ([9]; 0.0156 kg/ha) was 8.0 and the CHEAL rating ([9]; 0.0313 kg/ha) was 9.0. The CHEAL rating ([9]; 0.0625 kg/ha) was 9.0, the CHEAL rating ([9]; 0.1250 kg/ha) was 9.0 and the CHEAL rating ([9]; 0.2500 kg/ha) was 9.0. It also gave a CHEAL rating ([9]; 0.5000 kg/ha) of 9.0, an IPOHE rating ([10]; 0.0156 kg/ha) of 0.0 and an IPOHE rating ([10]; 0.0313 kg/ha) of 0.0. For the same compound, the IPOHE rating ([10]; 0.0625 kg/ha) was 0.5, the IPOHE rating ([10]; 0.1250 kg/ha) was 1.5 and the IPOHE rating ([10]; 0.2500 kg/ha) was 9.0. The IPOHE rating ([10]; 0.5000 kg/ha) was 9.0, the GLXMAW rating ([11]; 0.0156 kg/ha) was 0.0 and the GLXMAW rating ([11]; 0.0313 kg/ha) was 0.0. For the same compound, the GLXMAW rating ([11]; 0.0625 kg/ha) was 1.0, the GLXMAW rating ([11]; 0.1250 kg/ha) was 2.0 and the GLXMAW rating ([11]; 0.2500 kg/ha) was 8.5. The GLXMAW rating ([11]; 0.5000 kg/ha) was 9.0, the ORYSAT rating (ORYSAT (Rice, Tebonnet); 0.0156 kg/ha) was 0.0 and the ORYSAT rating (ORYSAT (Rice, Tebonnet); 0.0313 kg/ha) was 0.5. It also gave an ORYSAT rating (ORYSAT (Rice, Tebonnet); 0.0625 kg/ha) of 2.0, an ORYSAT rating (ORYSAT (Rice, Tebonnet); 0.1250 kg/ha) of 4.5 and an ORYSAT rating (ORYSAT (Rice, Tebonnet); 0.2500 kg/ha) of 8.0. The ORYSAT rating (ORYSAT (Rice, Tebonnet); 0.5000 kg/ha) was 9.0, the “MOOVA herbicidal effect rating” value (MOOVA (Monochoria); 0.0313 kg/ha) was 9.0 and the “MOOVA herbicidal effect rating” value (MOOVA (Monochoria); 0.0625 kg/ha) was 9.0. For the same compound, the “MOOVA herbicidal effect rating” value (MOOVA (Monochoria); 0.1250 kg/ha) was 9.0, the “MOOVA herbicidal effect rating” value (MOOVA (Monochoria); 0.2500 kg/ha) was 9.0 and the “SAGPY herbicidal effect rating” value ([12]; 0.0313 kg/ha) was 4.0. For the same compound, the “SAGPY herbicidal effect rating” value ([12]; 0.0625 kg/ha) was 5.0, the “SAGPY herbicidal effect rating” value ([12]; 0.1250 kg/ha) was 9.0 and the “SAGPY herbicidal effect rating” value ([12]; 0.2500 kg/ha) was 9.0.

Source: US20020137929A1, “1 - (3-heterocyclylphenyl) isothiourea, -isourea, -guanidine and -amidine herbicidal agents” (Intellectual Property Department, BASF Aktiengesellschaft, priority 1998, published 2002)
